Experiment: Surface tension and equilibrium contact angle by drop shape analyser (Example 7)
Format: physicochemical
Method: The wetting properties of the individual surfactants and in combination were evaluated by dissolving the surfactants at various concentrations in deionised water. Surface tension and equilibrium contact angle were measured in triplicate using a drop shape analyser with results given in Table 9 below.

Compound	contact angle (°) (0.005 % w/w in deionised water)	surface tension (mN/m) (0.005 % w/w in deionised water)	contact angle (°) (0.010 % w/w in deionised water)	surface tension (mN/m) (0.010 % w/w in deionised water)	contact angle (°) (0.025 % w/w in deionised water)	surface tension (mN/m) (0.025 % w/w in deionised water)	contact angle (°) (0.050 % w/w in deionised water)	surface tension (mN/m) (0.050 % w/w in deionised water)	contact angle (°) (0.100 % w/w in deionised water)	surface tension (mN/m) (0.100 % w/w in deionised water)	contact angle (°) (0.200 % w/w in deionised water)	surface tension (mN/m) (0.200 % w/w in deionised water)	contact angle (°) (0.250 % w/w in deionised water)	surface tension (mN/m) (0.250 % w/w in deionised water)	contact angle (°) (0.500 % w/w in deionised water)	surface tension (mN/m) (0.500 % w/w in deionised water)
CCCCC(CC)COC(=O)CC(C(=O)OCC(CC)CCCC)S(=O)(=O)[O-].[Na+] (stereo not shown) [sodium dioctylsulfosuccinate]	54.1 °	44.3 mN/m	38.2 °	43.6 mN/m	35.4 °	34.7 mN/m	31.5 °	32.2 mN/m	28.7 °	28.3 mN/m	24.4 °	26.8 mN/m	22.8 °	26.1 mN/m	21.4 °	25.3 mN/m
CCCCCCCCCCCCOS(=O)(=O)[O-].[Na+] [sodium lauryl sulfate]	107.1 °	70.6 mN/m			72.8 °	56.8 mN/m	63.9 °	46.1 mN/m	55.3 °	37.2 mN/m	51.5 °	34.2 mN/m	50.6 °	33.4 mN/m		
